Source: patent US20240317712A1, “[…] DERIVATIVES AS INHIBITORS OF […]-PEPTIDE CYCLOTRANSFERASE AND […]-PEPTIDE CYCLOTRANSFERASE LIKE PROTEIN” (Boehringer Ingelheim International GmbH, priority 2023, published 2024)

Experiments:
[1] = target: T1, QPCTL (Homo sapiens, UniProt Q9NXS2); assay: Assay A: biochemical QPCTL activity assay (MALDI-TOF MS, CD47 peptide substrate); settings: 0.5 nM enzyme, 10 μM CD47 peptide substrate; read-out: Inhibition of QPCTL: IC50
T1 construct: made in house
Procedure: (§1) QPCT or QPCTL dependent conversion of N-terminal glutamine to pyroglutamate of CD47 was monitored via MALDI-TOF MS. Test compounds were dissolved in 100% DMSO and serially diluted into clear 1,536-well microtiter plates. Enzymatic reactions were set up in assay buffer containing 20 mM Tris pH 7.5, 0.1 mM TCEP, 0.01% BSA, and 0.001% Tween20. […] The plates were incubated for 10 min in a humidified incubator at 24° C. Subsequently, 2.5 µL of CD47 peptide substrate surrogate (^19[…]^33) was added to each well (final concentration: 10 μM for QPCTL/20 μM for QPCT). The plates were mixed for 30 sec at 1,000 rpm and subsequently incubated for 40 min in a humidified incubator at 24° C. […] The plates were sealed with an adhesive foil, mixed for 30 s at 1,000 rpm and stored at room temperature until preparation of the MALDI target plates. MALDI target plates were prepared as described previously. […] QPCT or QPCTL activity was monitored by calculating the ratio between product and internal standard signals followed by normalization to high (100% activity) and low (0% activity) controls. Determination of compound potencies was obtained by fitting the dose-response data to a four-parameter logistical equation.

[2] = target: T2, QPCT (Homo sapiens, UniProt Q16769); assay: Assay A: biochemical QPCT activity assay (MALDI-TOF MS, CD47 peptide substrate); settings: 0.5 nM enzyme, 20 μM CD47 peptide substrate; read-out: Inhibition of QPCT: IC50
T2 construct: purchased Origine (so in the source)
Procedure: as §1

[3] = tested on: SIRPα signalling induced by Raji cells; assay: Assay B: SIRPα signalling assay using Raji cells; format: cell-based; settings: Homo sapiens, 48 h compound incubation, Jurkat PathHunter SIRPaV1 reporter cells, read-out: Inhibition of SIRPα signalling induced by Raji cells: IC50
Procedure: (§2) Two cell types are independently used: the Raji cell line (lymphoblast-like human cell line derived from B lymphocytes from a Burkitt's lymphoma patient in 1963) and A549 cells (adenocarcinoma human alveolar basal epithelial cells).
(§3) Test compounds were dissolved in 100% DMSO and serially diluted into a white 384-well microtiter cell culture plate (PerkinElmer #60076780 in case of Raji assay; PDL-coated plates Greiner #781945 in case of A549 assay), 5000 Raji cells (ATCC #CC86) or 5000 A549 cells (ATCC #CCL-185) in Assay Complete Cell Plating reagent 30 (DiscoverX 93-0563R30B) were added per well. The assay plate was incubated for 48 h at 37° C., 95% humidity and 5% CO2. 15000 reporter cells (Jurkat PathHunter SIRPaV1, DiscoverX #93-1135C19) were added to each well, and the plate was incubated for 5 h at 37° C., 95% humidity and 5% CO2. Bioassay reagent 1 of the PathHunter Bioassay detection kit (DiscoverX 93-0001) was added to each well of the plate using a multichannel pipette followed by a 15 min incubation at room temperature. Afterwards bioassay reagent 2 was added followed by 60 min incubation at room temperature (incubation in the dark). The analysis of the data was performed using the luminescence signal generated by beta-galactosidase in the PathHunter reporter cell line. The luminescence measurement was done using a Pherastar Multi-Mode Reader. Dose-response curves & IC50 data were calculated with 4-parameter sigmoidal dose response formula.

[4] = tested on: SIRPα signalling induced by A549 cells; assay: Assay B: SIRPα signalling assay using A549 cells; format: cell-based; settings: Homo sapiens, 48 h compound incubation, Jurkat PathHunter SIRPaV1 reporter cells, read-out: Inhibition of SIRPα signalling induced by A549 cells: IC50
Procedure: as §2, §3

[5] = Assay C: Permeability in CACO-2 cells; format: in vitro ADME; settings: human, pH 7.2; for efflux ratio: Caco-2, permeability B−A/permeability A−B; for Papp A→B: Caco-2, apical to basolateral
Procedure: Caco-2 cells (1-2×10^5 cells/1 cm^2 area) are seeded on filter inserts (Costar transwell polycarbonate or PET filters, 0.4 μm pore size) and cultured (DMEM) for 10 to 25 days. Compounds are dissolved in appropriate solvent (like DMSO, 1-20 mM stock solutions). […] The transport solution (TL) is applied to the apical or basolateral donor side for measuring A-B or B-A permeability (3 filter replicates), respectively. Samples are collected at the start and end of experiment from the donor and at various time intervals for up to 2 hours also from the receiver side for concentration measurement by HPLC-MS/MS or scintillation counting. Sampled receiver volumes are replaced with fresh receiver solution.
Efflux ratio (ER)=permeability B−A/permeability A−B

T2 sequence (Q16769 29-361): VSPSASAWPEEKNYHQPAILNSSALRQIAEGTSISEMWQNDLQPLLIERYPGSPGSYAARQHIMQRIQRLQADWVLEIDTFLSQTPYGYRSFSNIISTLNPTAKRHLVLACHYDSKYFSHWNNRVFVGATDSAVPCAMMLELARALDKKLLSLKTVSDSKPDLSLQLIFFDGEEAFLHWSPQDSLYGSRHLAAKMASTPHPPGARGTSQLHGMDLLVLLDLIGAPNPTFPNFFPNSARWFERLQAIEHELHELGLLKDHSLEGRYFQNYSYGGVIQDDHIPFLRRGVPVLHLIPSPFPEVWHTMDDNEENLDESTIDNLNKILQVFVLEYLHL
T1 sequence (Q9NXS2 whole entry): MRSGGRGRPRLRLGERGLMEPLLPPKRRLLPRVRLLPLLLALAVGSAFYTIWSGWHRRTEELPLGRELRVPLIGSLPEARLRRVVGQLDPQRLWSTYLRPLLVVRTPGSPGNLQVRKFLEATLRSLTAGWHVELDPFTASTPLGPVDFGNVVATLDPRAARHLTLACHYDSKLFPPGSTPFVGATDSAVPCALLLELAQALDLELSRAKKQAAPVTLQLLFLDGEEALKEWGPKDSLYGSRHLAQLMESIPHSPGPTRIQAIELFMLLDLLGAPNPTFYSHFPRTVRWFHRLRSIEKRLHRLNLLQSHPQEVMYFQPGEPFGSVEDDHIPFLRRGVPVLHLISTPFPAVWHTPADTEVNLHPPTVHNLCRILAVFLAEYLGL

SMILES | IC50 [1] [nM] | IC50 [2] [nM] | IC50 [3] [nM] | IC50 [4] [nM] | efflux ratio [5] | Papp A→B [5] [×10⁻⁶ cm/s]
Cn1cnnc1C1(F)CCN(c2c(C#N)cc(C(F)(F)F)cc2-c2cnc3nn(C(C)(C)C)cc3c2)CC1 [Example 1] | 1 | 1 | 5 | 11 | 3.2 | 25
Cn1cnnc1C1(F)CCN(c2c(C#N)cc(C(F)(F)F)cc2-c2cnc3nc(C(C)(C)C)nn3c2)CC1 [Example 2] | 2 | 1 | 14 | 7 | 6.9 | 8.9
Cn1cnnc1C1CCN(c2c(C#N)cc(C(F)(F)F)cc2-c2ccc(F)nc2)CC1 [Example 3] | 3 | 12 | 19 | 12 | 10.4 | 9
Cn1cnnc1C1(F)CCN(c2c(C#N)cc(C(F)(F)F)cc2-c2ccc(F)nc2)CC1 [Example 4] | 2 | 4 | 17 | 12 | 1.3 | 40.5
Cn1cnnc1C1(F)CCN(c2c(C#N)cc(C(F)(F)F)cc2-c2ccnnc2)CC1 [Example 5] | 2 | 3 | 19 | 21 | 10.3 | 3.3
Cn1cnnc1C1(F)CCN(c2c(C#N)cc(F)cc2-c2ccc(F)nc2)CC1 [Example 6] | 3 | 4 | 47 | 16 | 1.6 | 44
Cn1cnnc1C1CCN(c2c(C#N)cc(F)cc2-c2ccc(F)nc2)CC1 [Example 7] | 2 | 10 | 48 | 18 | 2.1 | 24
COc1ccc(C#N)c(N2CCC(c3nncn3C)CC2)c1-c1ccc(F)nc1 [Example 8] | 1 | 3 | 44 | 11 | 4.4 | 8.5
COc1ccc(C#N)c(N2CCC(F)(c3nncn3C)CC2)c1-c1ccc(F)nc1 [Example 9] | 1 | 1 | 35 | 6 | 1.9 | 28
CC(C)Oc1ccc(C#N)c(N2CCC(c3nncn3C)CC2)c1-c1ccc(F)nc1 [Example 10] | 1 | 1 | 52 | 9 | 2.4 | 30
Cn1cnnc1C1CCN(c2c(C#N)ccc(OCC3CC3)c2-c2ccc(F)nc2)CC1 [Example 11] | 1 | 2 | 44 | 43 | 3.2 | 28
Cn1cnnc1C1CCN(c2c(C#N)ccc(OCc3ccccc3)c2-c2ccc(F)nc2)CC1 [Example 12] | 1 | 1 | 20 | 14 | 2.6 | 19
Cn1cnnc1C1CCN(c2c(C#N)ccc(OC(F)F)c2-c2ccc(F)nc2)CC1 [Example 13] | 2 | 2 | 96 | 27 | 3.6 | 9.1
Cn1cnnc1C1CCN(c2c(-c3ccc(F)nc3)ccc(F)c2C#N)CC1 [Example 14] | 2 | 11 | 124 | 24 | 6.7 | 9.6
